Patent US7166440B2, “2,4,5-trichlorophenoxyalkyl carboxylic acid and a method for determining dioxins using the same” (priority 2003, dated 2007)
Like-named read-outs stand apart in the source and are kept apart here.

Columns and labels:
[1] = system: monoclonal antibody of clone C-3 (anti-dioxin antibody); test: Competitive EIA: inhibition of binding of clone C-3 monoclonal antibody to solid-phase antigen by free dioxin; set-up: species or system mouse
Protocol: (§1) Using various monoclonal antibodies, the specificity of the monoclonal antibodies to dioxin isomers was examined. The monoclonal antibodies were prepared in the following manner. An antibody-producing cell was injected into the abdominal cavity of a pristane-pretreated mouse. Th ascites fluid in the abdominal cavity caused by the growth of the cells was collected, and then a monoclonal antibody was purified by affinity chromatography using a protein G-Sepharose (manufactured by BIO-RAD Co.) as a carrier. Using three antibody-producing clones C-1, C-2 and C-3, respective monoclonal antibodies were prepared. The clones C-1, C-2 and C-3 produce monoclonal antibodies with respect to dibenzodioxin having chlorine atom at the 2-, 3-, 7-, and 8-positions.
(§2) To evaluate the specificity of the monoclonal antibody was performed according to the following principles. A solid-phase antigen (competitor) and a free dioxin (ligand) are allowed to compete with each other with respect to a free monoclonal antibody (anti-dioxin antibody). If the reactivity of the monoclonal antibody and the dioxin is higher than that of the monoclonal antibody and the solid-phase antigen, the binding of the monoclonal antibody to the solid-phase antigen is reduced. This reduction of the binding of the monoclonal antibody to the solid-phase antigen can be measured by color development method. This phenomenon can be applied to evaluate the specificity.
(§3) First, the immune antigen or the compound (IIa) conjugated with BSA that was produced in Example 2 was diluted with PBS to 1 μg/ml, and divided into each well of a 96-well assay plate (manufactured by Costar, Cat. No. 3590) in an amount of 50 μl. Then, the plate was sealed and allowed to stand at room temperature for one hour. Then, each well was washed with PBS containing 0.005% of Tween 20 three times. Next, 300 μl of Block Ace (manufactured by Snow Brand Milk Products Co., Ltd.) diluted with distilled water to a concentration of 25% was supplied to each well, and the plate was sealed and allowed to stand at 37° C. for two hours. Each well was washed with PBS containing 0.005% of Tween 20 three times. Then, a 25 μl of the dioxin compound solution of a final concentration of 5×10^−7 M was added to each well. The dioxin compound solution was prepared by diluting the dioxin with a dilution solvent comprising 20% DMSO and 0.01% of Triton X100. As controls, a dilution solvent in an amount of 25 μl was added to each well. Immediately after the addition of the dioxin compound solution or the dilution solvent, 25 μl of an antibody solution diluted with PBS containing 1 mg/ml of BSA was added to each well. The assay plate was stand at room temperature for one hour with slightly shaking.
(§4) After washing with PBS containing 0.005% of Tween 20 three times, 50 μl of the diluted HRP-labeled goat anti-mouse IgG (H+L) antibody (produced by affinity purification) was added to each well. The diluted HRP-labeled antibody was prepared by diluting the purchased HRP-labeled antibody to 2000 times as much with 10% Block Ace. The plate was allowed to stand at room temperature for one hour, followed by washing with PBS containing 0.005% of Tween 20 three times. Then, 50 μl of a HRP substrate, TMB (manufactured by KPL Co., Ltd.), was added to each well and allowed to stand at room temperature for 5 to 10 min. Then, 5 μl of a 1 M phosphate solution was added to each well, and the absorbance at a wavelength of 455 nm (655 nm for the reference) was measured with a spectrophotometer for a microtiter. The reactivity was evaluated by obtaining the absorbance (B0) at the time when the dioxin compound is not added, which is a control (diluent) and the absorbance (B) at the time when the dioxin compound is added. The inhibition rate was measured based on the following equation. Inhibition rate={(B0−B)/B0}×100 (%)
(§5) Evaluation was such that the larger this inhibition rate is, the higher the specificity of the anti-dioxin antibody to the dioxin compound.

[2] = system: anti-dioxin antibody (monoclonal antibody) to 1,2,3,7,8-PeCDF; format: binding, mouse
Protocol: as §3, §4
An anti-dioxin antibody (monoclonal antibody) to 1,2,3,7,8-PeCDF is used as an antibody. A haptenized product of a solid-phase antigen 6-(2,4,5-trichlorophenoxy) hexanoic acid amide derivative (IIa) and the chlorine-containing organic compounds in Tables 2 and 3 were allowed to compete with each other to this anti-dioxin antibody so that a competitive reaction was effected in the same manner as in Example 3. Then, the cross-reactivity was examined.

[3] = system: monoclonal antibody of clone C-1 (anti-dioxin antibody); test: Competitive EIA: inhibition of binding of clone C-1 monoclonal antibody to solid-phase antigen by free dioxin; set-up: species or system mouse
Protocol: as §1, §2, §3, §4, §5

[4] = toxicity equivalent factor of the dioxins used; cited from earlier work
[5] = system: monoclonal antibody of clone C-2 (anti-dioxin antibody); test: Competitive EIA: inhibition of binding of clone C-2 monoclonal antibody to solid-phase antigen by free dioxin; set-up: species or system mouse
Protocol: as §1, §2, §3, §4, §5

[6] = solid-phase antigen * (haptenized product of 6-(2,4,5-trichlorophenoxy) hexanoic acid amide derivative IIa), dioxin compound 5×10^−7 M
[7] = solid-phase antigen immunogen 3, dioxin compound final concentration 5×10^−7 M
[8] = Table 2, dioxins having TEF, solid-phase antigen (IIa), antibody to 1,2,3,7,8-PeCDF
[9] = solid-phase antigen immunogen 1, dioxin compound final concentration 5×10^−7 M
[10] = solid-phase antigen immunogen 2, dioxin compound final concentration 5×10^−7 M
[11] = Table 3, other chlorine-containing organic compounds and polycyclic aromatic hydrocarbons, solid-phase antigen (IIa), antibody to 1,2,3,7,8-PeCDF

Row | Structure (SMILES) | Inhibition rate [1, 6] [%] | Inhibition rate [1, 7] [%] | cross reaction [2, 8] [%] | Inhibition rate [3, 6] [%] | Inhibition rate [3, 9] [%] | TEF value [4] | Inhibition rate [5, 6] [%] | Inhibition rate [5, 10] [%] | cross reaction [2, 11] [%] | cross reaction [2] [%]
1 | Clc1cc2c(c(Cl)c1Cl)Oc1c(Cl)c(Cl)c(Cl)c(Cl)c1O2 [1,2,3,4,6,7,8-HpCDD] | 2.1 | 0.4 | 17.0 | 1.4 | 1.5 | 0.01 | −3.2 | −12.4 |  | 
2 | Clc1cc2c(oc3c(Cl)c(Cl)c(Cl)c(Cl)c32)c(Cl)c1Cl [1,2,3,4,6,7,8-HpCDF] | 3.4 | −2.7 | 17.9 | 7.5 | −0.9 | 0.01 | 51.4 | 6.8 |  | 
3 | Clc1cc2oc3c(Cl)c(Cl)c(Cl)c(Cl)c3c2c(Cl)c1Cl [1,2,3,4,7,8,9-HpCDF] | 11.3 | 6.1 | 28.7 | 7.1 | 5.8 | 0.01 | 7.5 | 27.7 |  | 
4 | Clc1cc2c(cc1Cl)Oc1c(Cl)c(Cl)c(Cl)c(Cl)c1O2 [1,2,3,4,7,8-HxCDD] | −2.3 | −2.5 | 24.8 | 14.1 | −1.4 | 0.1 | 19.1 | −9.4 |  | 
5 | Clc1cc2oc3c(Cl)c(Cl)c(Cl)c(Cl)c3c2cc1Cl [1,2,3,4,7,8-HxCDF] | 0.8 | 4.9 | 45.9 | −1.5 | 3.3 | 0.1 | −11.2 | 5.2 |  | 
6 | Clc1cc2c(c(Cl)c1Cl)Oc1cc(Cl)c(Cl)c(Cl)c1O2 [1,2,3,6,7,8-HxCDD] | 6.7 | 3.9 | 18.0 | −0.3 | 3.1 | 0.1 | 2.2 | −6.2 |  | 
7 | Clc1cc2c(oc3cc(Cl)c(Cl)c(Cl)c32)c(Cl)c1Cl [1,2,3,6,7,8-HxCDF] | 4.1 | 2.9 | 36.6 | 7.0 | 3.5 | 0.1 | 5.0 | 9.4 |  | 
8 | Clc1cc2c(c(Cl)c1Cl)Oc1c(cc(Cl)c(Cl)c1Cl)O2 [1,2,3,7,8,9-HxCDD] | 28.6 | 6.7 | 39.8 | 19.1 | 15.7 | 0.1 | 41.9 | 30.6 |  | 
9 | Clc1cc2oc3cc(Cl)c(Cl)c(Cl)c3c2c(Cl)c1Cl [1,2,3,7,8,9-HxCDF] | 48.1 | 10.4 | 42.7 | 34.7 | 26.2 | 0.1 | 68.1 | 43.3 |  | 
10 | Clc1cc2c(cc1Cl)Oc1c(cc(Cl)c(Cl)c1Cl)O2 [1,2,3,7,8-PeCDD] | 31.2 | 5.4 | 29.9 | 46.2 | 21.3 | 1 | 70.4 | 45.7 |  | 
11 | Clc1cc2oc3cc(Cl)c(Cl)c(Cl)c3c2cc1Cl [1,2,3,7,8-PeCDF] | 23.2 | 0.5 | 100.0 | 27.1 | 11.8 | 0.05 | 68.6 | 17.5 | 100.0 | 
12 | Clc1cccc(Cl)c1Cl [1,2,3-Trichlorobenzene] |  |  |  |  |  |  |  |  | <0.1 | 
13 | Clc1cc2c(oc3c(Cl)c(Cl)c(Cl)cc32)c(Cl)c1Cl [2,3,4,6,7,8-HxCDF] | 47.9 | 13.2 | 43.8 | 44.8 | 31.1 | 0.1 | 82.8 | 28.1 |  | 
14 | Clc1cc2oc3c(Cl)c(Cl)c(Cl)cc3c2cc1Cl [2,3,4,7,8-PeCDF] | 46.2 | 13.0 | 16.1 | 40.1 | 26.5 |  | 55.0 | 40.2 |  | 
15 | Oc1cc(Cl)c(Cl)cc1Cl [2,4,5-Trichlorophenol] |  |  |  |  |  |  |  |  | <0.1 | 
16 | Oc1ccc(Cl)cc1Cl [2,4-Dichlorophenol] |  |  |  |  |  |  |  |  | <0.1 | 
17 | Clc1cc(-c2cc(Cl)c(Cl)c(Cl)c2)cc(Cl)c1Cl [3,3′,4,4′,5,5′-HxCB] |  |  |  |  |  |  |  |  | <0.1 | 

Row | Structure (SMILES) | Inhibition rate [1, 6] [%] | Inhibition rate [1, 7] [%] | cross reaction [2, 8] [%] | Inhibition rate [3, 6] [%] | Inhibition rate [3, 9] [%] | TEF value [4] | Inhibition rate [5, 6] [%] | Inhibition rate [5, 10] [%] | cross reaction [2, 11] [%] | cross reaction [2] [%]
18 | Clc1ccc(-c2cc(Cl)c(Cl)c(Cl)c2)cc1Cl [3,3′,4,4′,5-PeCB] |  |  |  |  |  |  |  |  | <0.1 | 
19 | Clc1ccc(-c2ccc(Cl)c(Cl)c2)cc1Cl [3,3′,4,4′-TeCB] |  |  |  |  |  |  |  |  | <0.1 | 
20 | Oc1ccc(Cl)c(Cl)c1 [3,4-Dichlorophenol] |  |  |  |  |  |  |  |  | <0.1 | 
21 | c1ccc2cc3ccccc3cc2c1 [Anthracene] |  |  |  |  |  |  |  |  | <0.1 | 
22 | c1ccc2cc3c(ccc4ccccc43)cc2c1 [Benz[a]anthracene] |  |  |  |  |  |  |  |  | <0.1 | 
23 | c1ccc2c(c1)-c1cccc3c1c-2cc1ccccc13 [Benzo[b]fluoranthene] |  |  |  |  |  |  |  |  | <0.1 | 
24 | c1cc2ccc3ccc4ccc5cccc6c(c1)c2c3c4c56 [Benzo[ghi]perylene] |  |  |  |  |  |  |  |  | <0.1 | 
25 | c1ccc2cc3c(cc2c1)-c1cccc2cccc-3c12 [Benzo[k]fluoranthene] |  |  |  |  |  |  |  |  | <0.1 | 
26 | c1ccc2c(c1)ccc1c3ccccc3ccc21 [Chrysene] |  |  |  |  |  |  |  |  | <0.1 | 
27 | c1ccc2c(c1)-c1cccc3cccc-2c13 [Fluoranthene] |  |  |  |  |  |  |  |  |  | <0.1
28 | c1ccc2c(c1)Cc1ccccc1-2 [Fluorene] |  |  |  |  |  |  |  |  | <0.1 | 
29 | c1ccc2c(c1)-c1ccc3ccc4cccc5cc-2c1c3c45 [Indeno[1,2,3-cd]pyrene] |  |  |  |  |  |  |  |  | <0.1 | 
30 | c1ccc2ccccc2c1 [Naphthalene] |  |  |  |  |  |  |  |  | <0.1 | 
31 | c1ccc2c(c1)ccc1ccccc12 [Phenanthrene] |  |  |  |  |  |  |  |  | <0.1 | 
32 | c1cc2ccc3cccc4ccc(c1)c2c34 [Pyrene] |  |  |  |  |  |  |  |  | <0.1 | 
33 | Clc1cccc(Cl)c1 [m-Dichlorobenzene] |  |  |  |  |  |  |  |  | <0.1 | 
34 | Clc1ccc(-c2ccccc2)cc1 [p-chlorobiphenyl] |  |  |  |  |  |  |  |  | <0.1 | 
